US8088806B2 (Achillion Pharmaceuticals, Inc., priority 2005, dated 2012)
Structures can show the parent of a compound that is named as a salt. Where two headings read alike, the source gives them in different places.

System: HCV replicon
Assay: Replicon based assay of HCV replication inhibition (NPT ELISA)
Type: cell-based, Hepatitis C virus
Conditions: Hepatitis C virus, read-out: Activity
Summary of the method: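 Huh-7 cells carrying a bicistronic HCV replicon (neo, EMCV-IRES-driven NS3–NS5B) treated overnight after seeding with usually 6 concentrations, 10 to 0.03 micromolar, for three days at 37° C without G418. Replication read as NPT level by captured ELISA; matched-DMSO wells and interferon alpha as controls.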

[1] = Huh-7, 72 h, Table I, Huh-7 HCV replicon-containing cells, three days
[2] = replicon based assay of HCV replication inhibition, Table II

SMILES | EC50 [1] | EC50 [2]
Cc1sc(Nc2cccc(Oc3ccccc3)c2)nc1-c1ccc(CC(=O)O)cc1 [compound 187, 2-(4-(2-(3-phenoxyphenylamino)-5-methylthiazol-4-yl)phenyl)acetic acid] | < 1000 nM | –
Fc1cccc(-c2csc(Nc3cccc(Oc4ccccc4)c3)n2)c1 [compound 188, 4-(3-fluorophenyl)-N-(3-phenoxyphenyl)thiazol-2-amine] | < 1000 nM | –
Clc1ccc(-c2cc(-c3csc(Nc4cccc(Oc5ccccc5)c4)n3)on2)cc1Cl [compound 189, 4-(3-(3,4-dichlorophenyl)isoxazol-5-yl)-N-(3-phenoxyphenyl)thiazol-2-amine] | > 10000 nM | –
CCOC(=O)c1cc(-c2csc(Nc3cccc(Oc4ccccc4)c3)n2)on1 [compound 190, ethyl S-(2-(3-phenoxyphenylamino)thiazol-4-yl)isoxazole-3-carboxylate] | > 10000 nM | –
Clc1ccccc1-c1csc(Nc2cccc(Oc3ccccc3)c2)n1 [compound 191, 4-(2-chlorophenyl)-N-(3-phenoxyphenyl)thiazol-2-amine] | < 1000 nM | –
Cc1sc(Nc2cccc(OCc3ccccc3)c2)nc1-c1ccc(CC(=O)O)cc1 [compound 192, 2-(4-(2-(3-(benzyloxy)phenylamino)-5-methylthiazol-4-yl)phenyl)acetic acid] | < 1000 nM | –
Fc1cccc(-c2csc(Nc3cccc(OCc4ccccc4)c3)n2)c1 [compound 193, N-(3-(benzyloxy)phenyl)-4-(3-fluorophenyl)thiazol-2-amine] | < 1000 nM | –
Clc1ccc(-c2cc(-c3csc(Nc4cccc(OCc5ccccc5)c4)n3)on2)cc1Cl [compound 194, N-(3-(benzyloxy)phenyl)-4-(3-(3,4-dichlorophenyl)isoxazol-5-yl)thiazol-2-amine] | > 10000 nM | –
CCOC(=O)c1cc(-c2csc(Nc3cccc(OCc4ccccc4)c3)n2)on1 [compound 195, ethyl 5-(2-(3-(benzyloxy)phenylamino)thiazol-4-yl)isoxazole-3-carboxylate] | > 10000 nM | –
Clc1ccccc1-c1csc(Nc2cccc(OCc3ccccc3)c2)n1 [compound 196, N-(3-(benzyloxy)phenyl)-4-(2-chlorophenyl)thiazol-2-amine] | < 1000 nM | –
CCCCCOc1ccc(Nc2nc(-c3ccc(CC(=O)O)cc3)c(C)s2)cc1C(F)(F)F [compound 197, 2-(4-(2-(3-(trifluoromethyl)-4-(pentloxy)phenylamino)-5-methylthiazol-4-yl)phenyl)acetic acid] | < 1000 nM | –
CCCCCOc1ccc(Nc2nc(-c3cccc(F)c3)cs2)cc1C(F)(F)F [compound 198, N-(3-(trifluoromethyl)-4-(pentyloxy)phenyl)-4-(3-fluorophenyl)thiazol-2-amine] | < 1000 nM | –
CCCCCOc1ccc(Nc2nc(-c3ccc4c(c3)NC(=O)CO4)cs2)cc1C(F)(F)F [compound 199, 6-(2-(3-(trifluoromethyl)-4-(pentyloxy)phenylamino)thiazol-4-yl)-2H-benzo[b][1,4]oxazin-3(4H)-one] | < 1000 nM | –
CCCCCOc1ccc(Nc2nc(-c3ccc(CC(=O)O)s3)cs2)cc1C(F)(F)F [compound 200, 2-(5-(2-(3-(trifluoromethyl)-4-(pentyloxy)phenylamino)thiazol-4-yl)thiophen-2-yl)acetic acid] | < 1000 nM | –
CCCCCOc1ccc(Nc2nc(-c3cc(-c4ccc(Cl)c(Cl)c4)no3)cs2)cc1C(F)(F)F [compound 201, 4-(3-(3,4-dichlorophenyl)isoxazol-5-yl)-N-(3-(trifluoromethyl)-4-(pentyloxy)phenyl)thiazol-2-amine] | > 10000 nM | –
CCCCCOc1ccc(Nc2nc(-c3cc(C(=O)OCC)no3)cs2)cc1C(F)(F)F [compound 202, ethyl 5-(2-(3-(trifluoromethyl)-4-(pentyloxy)phenylamino)thiazol-4-yl)isoxazole-3-carboxylate] | < 1000 nM | –
CCCCCOc1ccc(Nc2nc(-c3ccccc3Cl)cs2)cc1C(F)(F)F [compound 203, 4-(2-chlorophenyl)-N-(3-(trifluoromethyl)-4-(pentyloxy)phenyl)thiazol-2-amine] | < 1000 nM | –
CCCCCOc1ccc(Nc2nc(C(=O)CBr)cs2)cc1C(F)(F)F [compound 204, 1-(2-(3-(trifluoromethyl)-4-(pentyloxy)phenylamino)thiazol-4-yl)-2-bromoethanone] | < 1000 nM | –
COc1cccc2sc(Nc3nc(-c4ccncc4)cs3)nc12 [compound 205, 4-methoxy-N-(4-(pyridin-4-yl)thiazol-2-yl)benzo[d]thiazol-2-amine] | < 1000 nM | –
Fc1ccc2nc(Nc3nc(-c4cccnc4)cs3)sc2c1 [compound 206, 6-fluoro-N-(4-(pyridin-3-yl)thiazol-2-yl)benzo[d]thiazol-2-amine] | 1000 to 10000 nM | –
COc1cccc2sc(Nc3nc(-c4cccnc4)cs3)nc12 [compound 207, 4-methoxy-N-(4-(pyridin-3-yl)thiazol-2-yl)benzo[d]thiazol-2-amine] | 1000 to 10000 nM | –

SMILES | EC50 [1] | EC50 [2]
CCCCCOc1ccc(Nc2nc(N)cs2)cc1C(F)(F)F [compound 208, N2-(3-(trifluoromethyl)-4-(pentyloxy)phenyl)thiazole-2,4-diamine] | 1000 to 10000 nM | –
CCCCCOc1ccc(Nc2nc(-c3ccc(C(=O)OC)cn3)cs2)cc1C(F)(F)F [compound 211, methyl 6-(2-(3-(trifluoromethyl)-4-(pentyloxy)phenylamino)thiazol-4-yl)pyridine-3-carboxylate] | < 1000 nM | –
CCCCCOc1ccc(Nc2nc(-c3ccc(C(=O)O)cn3)cs2)cc1C(F)(F)F [compound 213, 6-(2-(3-(trifluoromethyl)-4-(pentyloxy)phenylamino)thiazol-4-yl)pyridine-3-carboxylic acid] | < 1000 nM | –
FC(F)Oc1ccc(-c2csc(Nc3cccnc3)n2)cc1 [compound 214, N-(4-(4-(difluoromethoxy)phenyl)thiazol-2-yl)pyridin-3-amine] | > 10000 nM | –
CCCCCOc1ccc(Nc2nc(-c3ccc(C(=O)N(C)C)cn3)cs2)cc1C(F)(F)F [compound 215, 6-(2-(3-(trifluoromethyl)-4-(pentyloxy)phenylamino)thiazol-4-yl)-N,N-dimethylpyridine-3-carboxamide] | < 1000 nM | –
CCCCCOc1ccc(Nc2nc(CN3CCNC(=O)C3)cs2)cc1C(F)(F)F [compound 216, 4-((2-(3-(trifluoromethyl)-4-(pentyloxy)phenylamino)thiazol-4-yl)methyl)piperazin-2-one] | < 1000 nM | –
CCCCCOc1ccc(Nc2nc(CN3CCN(C)CC3)cs2)cc1C(F)(F)F [compound 217, N-(3-(trifluoromethyl)-4-(pentyloxy)phenyl)-4-((4-methylpiperazin-1-yl)methyl)thiazol-2-amine] | < 1000 nM | –
CCCCCOc1ccc(Nc2nc(CN(C)CC(N)=O)cs2)cc1C(F)(F)F [compound 218, 2-(N-((2-(3-(trifluoromethyl)-4-(pentyloxy)phenylamino)thiazol-4-yl)methyl)-N-methylamino)acetamide] | < 1000 nM | –
CCCCCOc1ccc(Nc2nc(-c3ccc(C(=O)N(C)CC(N)=O)nc3)cs2)cc1C(F)(F)F [compound 221, 5-(2-(3-(trifluoromethyl)-4-(pentyloxy)phenylamino)thiazol-4-yl)-N-(carbamoylmethyl)-N-methylpyridine-2-carboxamide] | < 1000 nM | –
CCCCCOc1ccc(Nc2nc(-c3ccc(C(=O)N4CCNC(=O)C4)nc3)cs2)cc1C(F)(F)F [compound 222] | < 1000 nM | –
CCCCCOc1ccc(Nc2nc(-c3cn4ccccc4n3)cs2)cc1C(F)(F)F [compound 223, N-(3-(trifluoromethyl)-4-(pentyloxy)phenyl)-4-(H-imidazo[1,2-a]pyridin-2-yl)thiazol-2-amine] | < 1000 nM | –
CCCCCOc1ccc(Nc2nc(C3CCCN(C(=O)OC(C)(C)C)C3)cs2)cc1C(F)(F)F (centres unmarked) [compound 224, tert-butyl 3-(2-(4-(pentyloxy)-3-(trifluoromethyl)phenyl-amino)thiazol-4-yl)piperidine-1-carboxylate] | – | < 1000 nM
CCCCCOc1ccc(Nc2nc(C3CCCNC3)cs2)cc1C(F)(F)F (centres unmarked) [compound 225, N-(4-(pentyloxy)-3-(trifluoromethyl)phenyl)-4-(piperidin-3-yl)thiazol-2-amine hydrochloride] | – | 1000 to 10000 nM
CCCCCOc1ccc(Nc2nc(C3CCCN3C(=O)C(F)(F)F)cs2)cc1C(F)(F)F (centres unmarked) [compound 226, 2,2,2-trifluoro-1-(2-(2-(4-(pentyloxy)-3(trifluoromethyl)phenyl-amino)thiazol-4-yl)pyrrolidin-1-yl)ethanone] | – | 1000 to 10000 nM
CCCCCOc1ccc(Nc2nc(-c3cnc4scc(C)n34)cs2)cc1C(F)(F)F [compound 227, 4-(3-methylimidazo[1,2-b]thiazol-5-yl)-N-(4-(pentyloxy)-3-(trifluoromethyl)phenyl)thia-zol-2-amine] | – | < 1000 nM
CCCCCOc1ccc(Nc2nc(C3=CSC4=NCCN34)cs2)cc1C(F)(F)F [compound 228, 4-(5,6-dihydroimidazo[2,1-b]thiazol-3-yl)-N-(4-(pentyloxy)-3-(trifluoromethyl)phenyl)thia-zol-2-amine] | – | < 1000 nM
CCCCCOc1ccc(Nc2nc(C3=NN=C(N)SC3)cs2)cc1C(F)(F)F [compound 229, 5-(2-(4-(pentyloxy)-3-(trifluoromethyl)phenyl-amino)thiazol-4-yl)-6H-1,3,4-thiazdiazin-2-amine] | – | < 1000 nM
CCCCCOc1ccc(Nc2nc(CN3CCCCC3)cs2)cc1C(F)(F)F [compound 230, N-(4-(pentyloxy)-3-(trifluoromethyl)phenyl)-4-(piperidin-1-ylmethyl)thiazol-2-amine] | – | 1000 to 10000 nM
CCCCCOc1ccc(Nc2nc(CN3CCC(C)CC3)cs2)cc1C(F)(F)F [compound 231, 4-((4-methylpiperidin-1-yl)methyl)-N-(4-(pentyloxy)-3-(trifluoromethyl)phenyl)thia-zol-2-amine] | – | < 1000 nM
CCCCCOc1ccc(Nc2nc(C(=O)Nc3ccncc3)cs2)cc1C(F)(F)F [compound 232, 2-(4-(pentyloxy)-3-(trifluoromethyl)phenyl-amino)-N-(pyridin-4-yl)thiazole-4-carboxamide] | – | 1000 to 10000 nM
